The results in this text go back to patent publication US20240116850A1, “COMPOSITIONS AND METHODS RELATED TO BICYCLO[2.2.1] HEPTANAMINE-CONTAINING COMPOUNDS” (The Broad Institute, Inc., priority 2020, published 2024).

The term EC50 denotes the concentration at which the effect is half-maximal. A higher EC50 goes with lower potency in that assay.

Structures are written as SMILES.

One experiment deals with MUC1-wt. Description: High-content imaging assay of MUC1-wt total cytoplasm intensity in P cells. It counts as cell-based. The conditions noted are these: for EC50: MUC1-wt total cytoplasm intensity, P cells, 48 hr incubation; for WT ECMax: MUC1-wt, DMSO = 0, JQ1 (250 nM) = −100% activity. The protocol: (§1) P cells were seeded 24 hr prior to compound treatment at a density of 12,000 cells/well in 384 well Cell Carrier Ultra plates (6057308, Perkin Elmer), pre-coated with 0.25 mg/mL Synthemax 11 SC Substrate (3535, Corning). Compounds were used at 5 doses (35, 3.5, 0.35, 0.035 and 0.0035 μM) for the primary screen and 10 doses (16, 5.6, 1.8, 0.6, 0.21, 0.07, 0.02, 0.008, 0.002 and 0.0008 μM) for the following screens. The compounds, in two replicates, were transferred from compound source plates to the cell plates using the HighRes Pin Tool. DMSO was used as a negative control and JQ1 (250 nM) (a bromodomain inhibitor) was chosen as a positive control, based on earlier studies showing its potent effect on reducing total MUC1 mRNA levels (data not shown). After 48 hr incubation, cells were fixed for 20 min in 4% PFA (Electron Microscopy Sciences) in PBS, washed twice, then permeabilized (10 min) with 0.5% Triton-X100 (X100-100MVL, Sigma-Aldrich) in PBS and washed once more. Cells were blocked for 10 min at RT with Blocking solution (100 mM Tris HCL pH8; l150 mM NaCL; 5 g/L Blocking Reagent [11096176001, Roche]), then incubated 90 min at RT with one of the following primary antibodies in Roche Blocking solution: 1:500, monoclonal Fab-A-V5H anti-MUC1-fs, AbD22655.2, Bio-Rad; 1:2000, monoclonal mouse anti-MUC1 (214D4), 05-652-KC, Millipore; 1:1000, monoclonal, Rabbit anti-GM130 (D6B1) XP, 12480, Cell signaling technology. The primary antibody cocktail was incubated at RT for 1.5 hr, followed by four PBS wash cycles. The secondary antibody cocktail contained four components that were all prepared at a 1:1000 dilution in the Roche blocking solution and consisted of Alexa Fluor® 488-conjugated AffiniPure F(ab′)2 Fragment Goat anti-Human IgG, 109-546-097, Jackson Immunoresearch; Alexa Fluor® 647-conjugated Goat anti-Rabbit IgG, A-21246, Thermo Fisher Scientific®; Alexa Fluor® 546 Goat anti-mouse IgG, A-21123, Thermo Fisher Scientific® and Hoechst 33342 stain (62249, Thermo Fisher Scientific®). The secondary antibody cocktail was incubated at RT for 45 min, followed by four PBS wash cycles. Finally, plates were sealed with a Plate Loc plate and stored in Liconic incubator at 10° C. until imaging. Following image analysis, three parameters were selected, i) MUC1-fs and ii) MUC1-wt total cytoplasm intensity (averaged per cell) and iii) cell number as was detected by Hoechst 33342 stained nuclei. The levels of MUC1-fs and MUC1-wt found following DMSO and JQ1 were defined as 0 and −100% activity, respectively. The values obtained for all compounds were normalized accordingly. Cell number was normalized to DMSO control.
(§2) The pure enantiomers were profiled in the high-content imaging assay for the ability to reduce the amount of FS MUC1 protein in the cytoplasm (Table 48) following the procedure of Example 4.

The next experiment deals with MUC1-fs. Put plainly: High-content imaging assay of MUC1-fs total cytoplasm intensity in P cells. It counts as cell-based. The conditions noted are these: for EC50: MUC1-fs total cytoplasm intensity, P cells, 48 hr incubation; for ECMax: MUC1-fs, DMSO = 0, JQ1 (250 nM) = −100% activity. Here is the method: as §1, §2

As for `Cl.N[C@H]1[C@H]2CC[C@H](C2)[C@@H]1c1ccccc1` (single isomer, unassigned) [Compound 120-P2], in the experiment with MUC1-wt, the EC50 is greater than 32 µM and the “WT ECMax” value is recorded as −11.21%. In the experiment on MUC1-fs, the EC50 is greater than 32 µM and the ECMax is given as −24.61%.
As to `Cl.N[C@@H]1[C@H]2CC[C@H](C2)[C@H]1c1ccccc1` (single isomer, unassigned) [Compound 121-P2], in the experiment with MUC1-wt, the EC50 is greater than 32 µM and the “WT ECMax” value was determined as 7.35%. In the experiment on MUC1-fs, the 50% effective concentration (EC50) is greater than 32 µM and the ECMax is reported as −9.03%.
In the case of `CC(C)[C@@H]1[C@@H]2CC[C@@H](C2)[C@H]1N.Cl` [Compound 101], in the experiment with MUC1-wt, the midpoint of the response, the EC50, lay at 12.3 µM and the “WT ECMax” value stood at 18.4%. Moreover, in the experiment with MUC1-fs, it took 0.524 µM to reach a half-maximal effect (EC50) and the ECMax was −68.74%.
For `CC(C)[C@H]1[C@H]2CC[C@H](C2)[C@@H]1N.Cl` [Compound 102], in that order: greater than 32 µM, −16.83%, 8.63 µM and −60.66%.
Turning to `CCC[C@@H]1[C@H]2CC[C@H](C2)[C@H]1N.Cl` [Compound 107-P1], in the experiment on MUC1-wt, the EC50 is greater than 32 µM and the “WT ECMax” value is 14.07%. For the same compound, in the experiment with MUC1-fs, the response was half-maximal at 25.8 µM (EC50) and the ECMax is −15.72%.
For the compound `CCC[C@H]1[C@@H]2CC[C@@H](C2)[C@@H]1N.Cl` [Compound 107-P2], in the experiment with MUC1-wt, the EC50 is greater than 32 µM and the “WT ECMax” value stood at 8.96%. Also, in the experiment with MUC1-fs, the EC50 was greater than 32 µM and the ECMax is given as −9.6%.
As for `CCC[C@H]1[C@H]2CC[C@H](C2)[C@@H]1N.Cl` [Compound 108-P1], in the experiment with MUC1-wt, the EC50 is greater than 32 µM and the “WT ECMax” value is given as −12.05%. In addition, in the experiment with MUC1-fs, a half-maximal effect (EC50) was put at 29.9 µM and the ECMax is listed as −24.9%.
As for `CCC[C@@H]1[C@@H]2CC[C@@H](C2)[C@H]1N.Cl` [Compound 108-P2], in the experiment with MUC1-wt, the half-maximal effective concentration (EC50) is greater than 32 µM and the “WT ECMax” value is on record as 16.1%. Also, in the experiment on MUC1-fs, a half-maximal response (EC50) required 5.6 µM and the ECMax was 22.43%.
